Where a SMILES comes first, the peptide text is derived from it. [ ]: non-standard residue; d: D form. The star is where a group is joined. Hyp = O=C(O)[C@@H]1C[C@@H](O)CN1; Tic = O=C(O)[C@@H]1Cc2ccccc2CN1; Phg = N[C@H](C(=O)O)c1ccccc1; NHOH = ON*
Tests used:
[1] = molecular target: 72 kDa type IV collagenase (Homo sapiens, UniProt P08253); experiment: Inhibition of MMP2 after 30 mins
[2] = molecular target: T1, Aminopeptidase N (Sus scrofa, UniProt P15145); experiment: Inhibition of pig kidney microsome aminopeptidase N using L-Leu-p-nitroanilide substrate
T1 sequence (P15145 whole entry): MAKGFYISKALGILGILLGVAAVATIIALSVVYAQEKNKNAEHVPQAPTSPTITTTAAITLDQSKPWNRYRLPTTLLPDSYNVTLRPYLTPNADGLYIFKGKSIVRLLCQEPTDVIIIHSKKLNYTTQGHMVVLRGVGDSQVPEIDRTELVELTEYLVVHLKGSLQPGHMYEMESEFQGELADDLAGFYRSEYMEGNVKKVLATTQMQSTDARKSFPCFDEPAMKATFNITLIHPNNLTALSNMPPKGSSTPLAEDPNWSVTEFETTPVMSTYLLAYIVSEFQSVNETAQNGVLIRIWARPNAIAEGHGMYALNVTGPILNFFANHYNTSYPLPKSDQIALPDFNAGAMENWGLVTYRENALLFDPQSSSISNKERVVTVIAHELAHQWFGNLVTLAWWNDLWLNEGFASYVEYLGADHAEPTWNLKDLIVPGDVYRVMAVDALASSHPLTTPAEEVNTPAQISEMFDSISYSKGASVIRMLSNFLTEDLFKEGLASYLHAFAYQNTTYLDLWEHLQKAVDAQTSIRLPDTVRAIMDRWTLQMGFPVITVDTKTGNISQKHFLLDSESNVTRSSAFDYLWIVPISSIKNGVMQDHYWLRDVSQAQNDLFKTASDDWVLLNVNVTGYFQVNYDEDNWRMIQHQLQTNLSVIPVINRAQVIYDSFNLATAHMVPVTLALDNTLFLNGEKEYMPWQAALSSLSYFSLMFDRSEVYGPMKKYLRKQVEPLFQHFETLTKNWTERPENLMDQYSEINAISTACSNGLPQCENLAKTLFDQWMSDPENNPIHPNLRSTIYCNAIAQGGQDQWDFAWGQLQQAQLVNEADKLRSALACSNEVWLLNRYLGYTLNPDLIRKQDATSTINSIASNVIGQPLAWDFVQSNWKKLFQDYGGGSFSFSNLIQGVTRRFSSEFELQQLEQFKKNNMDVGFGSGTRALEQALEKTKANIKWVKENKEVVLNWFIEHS

[3] = cells; conditions: Homo sapiens, ES-2, 48 h
Description: Antiproliferative activity against human ES2 cells after 48 hrs by MTT assay

[4] = molecular target: Aminopeptidase N (Homo sapiens, UniProt P15144); experiment: Inhibition of aminopeptidase N in human ES2 cells assessed as L-Leu-p-nitroanilide hydrolysis; format: cell-based
[5] = system: MDA-MB-231; experiment: Antiproliferative activity against human MDA-MB-231 cells after 48 hrs by MTT assay; format: functional, cell-based; conditions: MDA-MB-231, 48 h

Sequence of 72 kDa type IV collagenase (P08253 whole entry): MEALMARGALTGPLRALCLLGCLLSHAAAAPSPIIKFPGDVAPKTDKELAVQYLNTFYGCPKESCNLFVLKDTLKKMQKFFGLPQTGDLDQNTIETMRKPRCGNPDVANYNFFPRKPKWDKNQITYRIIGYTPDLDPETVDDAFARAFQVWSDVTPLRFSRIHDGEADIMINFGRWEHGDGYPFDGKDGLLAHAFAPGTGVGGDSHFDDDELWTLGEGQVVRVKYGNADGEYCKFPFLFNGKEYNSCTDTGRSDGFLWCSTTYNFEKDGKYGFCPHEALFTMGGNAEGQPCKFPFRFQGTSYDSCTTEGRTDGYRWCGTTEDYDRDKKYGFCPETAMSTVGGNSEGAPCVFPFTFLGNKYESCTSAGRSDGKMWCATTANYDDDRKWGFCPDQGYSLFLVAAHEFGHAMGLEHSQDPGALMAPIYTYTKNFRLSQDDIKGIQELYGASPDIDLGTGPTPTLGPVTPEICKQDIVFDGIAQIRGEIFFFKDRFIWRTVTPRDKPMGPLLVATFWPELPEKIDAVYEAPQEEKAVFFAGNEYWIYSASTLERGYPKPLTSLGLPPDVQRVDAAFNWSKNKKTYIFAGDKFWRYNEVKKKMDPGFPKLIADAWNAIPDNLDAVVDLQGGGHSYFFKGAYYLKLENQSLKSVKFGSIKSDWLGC
Sequence of Aminopeptidase N (Homo sapiens, UniProt P15144) (P15144 whole entry): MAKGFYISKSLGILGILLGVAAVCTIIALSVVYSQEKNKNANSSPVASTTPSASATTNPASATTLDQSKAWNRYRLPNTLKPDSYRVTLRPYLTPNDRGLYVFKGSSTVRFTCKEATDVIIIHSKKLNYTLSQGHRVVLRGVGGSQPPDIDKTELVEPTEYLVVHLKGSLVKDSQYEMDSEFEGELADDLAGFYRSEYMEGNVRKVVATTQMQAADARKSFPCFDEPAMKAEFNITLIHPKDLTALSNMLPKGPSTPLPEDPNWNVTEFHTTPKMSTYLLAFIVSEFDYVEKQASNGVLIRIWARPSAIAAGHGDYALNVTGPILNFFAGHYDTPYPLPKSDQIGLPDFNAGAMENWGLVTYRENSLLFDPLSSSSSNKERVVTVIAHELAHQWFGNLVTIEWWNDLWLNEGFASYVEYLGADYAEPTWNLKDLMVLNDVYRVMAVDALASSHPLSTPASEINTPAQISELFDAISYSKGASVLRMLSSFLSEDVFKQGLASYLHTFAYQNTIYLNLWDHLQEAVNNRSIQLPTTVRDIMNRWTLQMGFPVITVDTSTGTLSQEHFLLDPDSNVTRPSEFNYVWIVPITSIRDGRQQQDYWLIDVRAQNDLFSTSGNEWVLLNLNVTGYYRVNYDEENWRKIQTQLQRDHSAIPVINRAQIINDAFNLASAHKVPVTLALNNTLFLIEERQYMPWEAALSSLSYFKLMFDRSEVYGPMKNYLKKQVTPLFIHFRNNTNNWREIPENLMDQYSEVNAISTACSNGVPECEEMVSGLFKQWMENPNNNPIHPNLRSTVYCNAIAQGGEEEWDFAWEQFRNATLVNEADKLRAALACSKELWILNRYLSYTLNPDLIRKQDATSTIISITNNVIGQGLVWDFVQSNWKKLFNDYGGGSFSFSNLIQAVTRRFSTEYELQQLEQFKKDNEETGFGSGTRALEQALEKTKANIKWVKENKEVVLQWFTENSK

SMILES | IC50 ([2]; read-out: IC50) [µM] | IC50 ([1]; read-out: IC50) [µM] | other results
Cl.O=C(CN1C(=O)CC[C@H](NC(=O)[C@@H]2Cc3ccccc3CN2)C1=O)NO | 20.4 | – | IC50 [1]: Not Active
O=C(CCNC(=O)[C@@H]1Cc2ccccc2CN1)NO | 37.1 | 517 | –
O=C(CCCNC(=O)[C@@H]1Cc2ccccc2CN1)NO | 44.5 | 252 | –
Cl.O=C(N[C@@H](Cc1cc2ccccc2[nH]1)C(=O)NO)[C@@H]1Cc2ccccc2CN1 | 43.4 | – | IC50 [1]: Not Active
C[C@H](NC(=O)[C@@H]1Cc2ccccc2CN1)C(=O)NO (H-[Tic]-Ala-{NHOH}) | 83.8 | 463 | –
O=C(CNC(=O)[C@@H]1Cc2ccccc2CN1)NO (H-[Tic]-Gly-{NHOH}) | 21.7 | 249 | –
CC[C@H](C)[C@H](NC(=O)[C@@H]1Cc2ccccc2CN1)C(=O)NO.Cl (H-[Tic]-Ile-{NHOH}) | – | 672 | IC50 [2]: Not Active
CC(C)C[C@H](NC(=O)[C@H](CC(C)C)NC(=O)[C@@H]1Cc2ccccc2CN1)C(=O)NO.Cl (H-[Tic]-Leu-Leu-{NHOH}) | 481 | – | IC50 [1]: Not Active
CC(C)C[C@H](NC(=O)[C@@H]1Cc2ccccc2CN1)C(=O)N[C@@H](Cc1ccccc1)C(=O)NO (H-[Tic]-Leu-Phe-{NHOH}) | 465 | 657 | –
CC(C)C[C@H](NC(=O)[C@@H]1Cc2ccccc2CN1)C(=O)NO (H-[Tic]-Leu-{NHOH}) | 27.5 | 836 | –
CSCC[C@H](NC(=O)[C@@H]1Cc2ccccc2CN1)C(=O)NO (H-[Tic]-Met-{NHOH}) | 8.77 | 166 | –
CC(C)C[C@H](NC(=O)[C@H](Cc1ccccc1)NC(=O)[C@@H]1Cc2ccccc2CN1)C(=O)NO.Cl (H-[Tic]-Phe-Leu-{NHOH}) | 555 | – | IC50 [1]: Not Active
Cl.O=C(N[C@@H](Cc1ccccc1)C(=O)N[C@@H](Cc1ccccc1)C(=O)NO)[C@@H]1Cc2ccccc2CN1 (H-[Tic]-Phe-Phe-{NHOH}) | 435 | – | IC50 [1]: Not Active
O=C(N[C@@H](Cc1ccccc1)C(=O)NO)[C@@H]1Cc2ccccc2CN1 (H-[Tic]-Phe-{NHOH}) | 12.8 | 940 | –
O=C(NO)[C@@H]1CCCN1C(=O)[C@@H]1Cc2ccccc2CN1 (H-[Tic]-Pro-{NHOH}) | 104 | 157 | –
O=C(N[C@@H](CO)C(=O)NO)[C@@H]1Cc2ccccc2CN1 (H-[Tic]-Ser-{NHOH}) | 40.2 | 268 | –
C[C@@H](O)[C@H](NC(=O)[C@@H]1Cc2ccccc2CN1)C(=O)NO (H-[Tic]-Thr-{NHOH}) | 46.6 | 201 | –
O=C(N[C@@H](Cc1ccc(O)cc1)C(=O)NO)[C@@H]1Cc2ccccc2CN1 (H-[Tic]-Tyr-{NHOH}) | 9.39 | 540 | –
CC(C)[C@H](NC(=O)[C@@H]1Cc2ccccc2CN1)C(=O)NO (H-[Tic]-Val-{NHOH}) | 36.6 | 307 | –
Cl.O=C(NO)[C@@H]1C[C@@H](O)CN1C(=O)[C@@H]1Cc2ccccc2CN1 (H-[Tic]-[Hyp]-{NHOH}) | – | 276 | IC50 [2]: Not Active
O=C(N[C@H](C(=O)NO)c1ccccc1)[C@@H]1Cc2ccccc2CN1 (H-[Tic]-[Phg]-{NHOH}) | 6.28 | 393 | IC50 [3]: 174 µM; IC50 [4]: 32.7 µM; inhibition [4]: Dose-dependent effect; IC50 [5]: 591 µM
CC(C)C[C@H](NC(=O)[C@@H](O)[C@H](N)Cc1ccccc1)C(=O)O [UBENIMEX] | – | – | IC50 [3]: 142 µM; IC50 [5]: 753 µM

Source: ChEMBL document CHEMBL1828564, “Design, synthesis and biological evaluation of novel 1,2,3,4-tetrahydroisoquinoline-3-carboxylic acid derivatives as aminopeptidase N/CD13 inhibitors” (Bioorg Med Chem, 2011)
